The source of these data is patent US5861476A, “Peptides and compounds that bind to the IL-1 receptor” (Affymax Technologies N.V., priority 1995, dated 1999).

Test [1] concerns the target T1, IL-1 induced E-selectin in HUVEC cells (Homo sapiens, UniProt P14778).
T1 sequence (P14778 18-569): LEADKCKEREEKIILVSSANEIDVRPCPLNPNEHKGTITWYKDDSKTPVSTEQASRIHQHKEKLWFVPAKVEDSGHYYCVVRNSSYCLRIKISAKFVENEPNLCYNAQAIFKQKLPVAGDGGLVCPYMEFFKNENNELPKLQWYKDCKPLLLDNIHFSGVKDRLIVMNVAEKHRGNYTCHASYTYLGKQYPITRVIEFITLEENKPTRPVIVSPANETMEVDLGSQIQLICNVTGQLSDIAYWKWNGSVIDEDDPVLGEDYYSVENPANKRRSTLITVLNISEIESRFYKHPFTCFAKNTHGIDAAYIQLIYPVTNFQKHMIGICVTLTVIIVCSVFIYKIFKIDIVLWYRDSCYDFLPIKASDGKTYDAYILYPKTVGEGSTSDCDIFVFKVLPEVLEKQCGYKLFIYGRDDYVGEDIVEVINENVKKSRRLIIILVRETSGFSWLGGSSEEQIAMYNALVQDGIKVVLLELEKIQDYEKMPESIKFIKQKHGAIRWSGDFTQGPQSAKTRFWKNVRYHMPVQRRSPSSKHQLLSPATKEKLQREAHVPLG
In words: Peptide Effects on IL-1 Induced E-Selectin (HUVEC Cells). The format is cell-based. The settings on record: 120 pM IL-1α, read-out: IC50 (concentration required to inhibit 50% of IL-1 induced E-selectin expression). How it is done: The compounds of the present invention were assayed for their ability to inhibit the expression of IL-1 induced E-selectin in HUVEC cells (human umbilical vein endothelial cells). HUVEC cells are grown to confluency in the wells of a 24-well microtiter plate. The compounds were serially diluted in DMEM/F12+0.1% BSA ("SFM"with 120 pM IL-1α. The cells were washed and then incubated with IL-1α and the compound to be tested for 15 minutes. The cells were again washed and incubated in SFM for 4 hours. The cells were washed and incubated with anti-selectin antibody for 30 minutes. Following antibody incubation, the cells were incubated with ^125 I Protein A and washed. The amount of ^125 I bound to the cells was then determined. The concentration of compounds required to inhibit 50% of IL-1 induced E-selectin expression is shown below.

Test [2] concerns the target T2, IL-1 induced down-regulation of the epidermal growth factor (EGF) receptor in normal human dermal fibroblasts (NHDF) (Homo sapiens, UniProt P14778).
T2 sequence (P14778 18-569): T1 sequence (P14778 18-569)
In words: Epidermal Growth Factor Receptor Down Regulation Assay. Format: cell-based. Conditions: 37° C., in the presence of IL-1α, 125I-labeled EGF binding, read-out: IC50 (approximate concentration which blocked 50% of the IL-1 induced down regulation of the EGF receptor). The text has this:
The protocol set forth in Bird and Saklatvala (1989) J. Immunol. […] This assay examines the effect of the compounds of the invention on the IL-1 induced down-regulation of the epidermal growth factor (EGF) receptor as measured by the binding of ^125 I-labeled EGF to its receptor in normal human dermal fibroblasts (NHDF). […] The table below lists the approximate concentration of representative peptides of the invention which blocked 50% of the IL-1 induced down regulation of the EGF receptor. IC50 values are indicated symbolically by the symbols "-", "+", and "++". […] Those peptides which give IC50 values of less than or equal to 100 μM are given a "+", while those which give IC50 values of 500 nM or less are indicated with a "++". Those peptides which give IC50 values at or near the cutoff point for a particular symbol are indicated with a hybrid, e.g. "±". Those peptides for which IC50 values were not determined are listed as "N.D".

Where a SMILES comes first, the peptide text is derived from it. [ ]: non-standard residue; d: D form. Aze = O=C(O)[C@@H]1CCN1

With `CC(C)C[C@H](NC(=O)[C@@H]1CCCN1C(=O)[C@H](CC(C)C)NC(=O)[C@H](C)NC(=O)[C@H](Cc1ccc(O)cc1)NC(=O)[C@@H]1CCN1C(=O)[C@H](CCC(N)=O)NC(=O)[C@H](Cc1ccc(O)cc1)NC(=O)[C@H](Cc1c[nH]c2ccccc12)NC(=O)CNC(=O)[C@@H]1CCCN1C(=O)[C@@H](NC(=O)[C@H](Cc1c[nH]c2ccccc12)NC(=O)[C@H](CCC(=O)O)NC(=O)[C@@H](N)Cc1ccccc1)[C@@H](C)O)C(=O)O` [FEWTPGWYQJYALPL] (H-FEWTPGWYQ[Aze]YALPL-OH), the IC50 in test [1] is at most 500 nM.
As for `CC(C)C[C@H](NC(=O)[C@@H]1CCCN1C(=O)[C@H](CC(C)C)NC(=O)[C@H](C)NC(=O)[C@H](Cc1ccc(O)cc1)NC(=O)[C@@H]1CCN1C(=O)[C@H](CCC(N)=O)NC(=O)[C@H](Cc1c[nH]c2ccccc12)NC(=O)[C@H](Cc1ccc(O)cc1)NC(=O)CNC(=O)[C@@H]1CCCN1C(=O)[C@@H](NC(=O)[C@H](Cc1c[nH]c2ccccc12)NC(=O)[C@H](CCC(=O)O)NC(=O)[C@@H](N)Cc1ccccc1)[C@@H](C)O)C(=O)O` [FEWTPGYWQJYALPL] (H-FEWTPGYWQ[Aze]YALPL-OH), the IC50 in test [1] and in test [2] was at most 500 nM throughout.
For the compound `CC(=O)N[C@@H](Cc1ccccc1)C(=O)N[C@@H](CCC(=O)O)C(=O)N[C@@H](Cc1c[nH]c2ccccc12)C(=O)N[C@H](C(=O)N1CCC[C@H]1C(=O)N[C@H](C)C(=O)N[C@@H](Cc1ccc(O)cc1)C(=O)N[C@@H](Cc1c[nH]c2ccccc12)C(=O)N[C@@H](CCC(N)=O)C(=O)N1CC[C@H]1C(=O)N[C@@H](Cc1ccc(O)cc1)C(N)=O)[C@@H](C)O` [AcFEWTPaYWQJY--NH2] (Ac-FEWTP[dA]YWQ[Aze]Y-NH2), the IC50 in test [1] was at most 500 nM; in test [2] it was at most 100000 nM.
The like results for `CC(=O)N[C@@H](Cc1ccccc1)C(=O)N[C@@H](CCC(=O)O)C(=O)N[C@@H](Cc1c[nH]c2ccccc12)C(=O)N[C@H](C(=O)N1CCC[C@H]1C(=O)N[C@H](C)C(=O)N[C@@H](Cc1c[nH]c2ccccc12)C(=O)N[C@@H](Cc1ccc(O)cc1)C(=O)N[C@@H](CCC(N)=O)C(=O)N1CC[C@H]1C(=O)N[C@@H](Cc1ccc(O)cc1)C(N)=O)[C@@H](C)O` [AcFEWTPaWYQJY--NH2] (Ac-FEWTP[dA]WYQ[Aze]Y-NH2) were, in that order, at most 500 nM and at most 100000 nM.
The like results for `CC(=O)N[C@@H](Cc1ccccc1)C(=O)N[C@@H](CCC(=O)O)C(=O)N[C@@H](Cc1c[nH]c2ccccc12)C(=O)N[C@H](C(=O)N1CCC[C@H]1C(=O)NCC(=O)N[C@@H](Cc1ccc(O)cc1)C(=O)N[C@@H](Cc1ccc(O)cc1)C(=O)N[C@@H](CCC(N)=O)C(=O)N1CC[C@H]1C(=O)N[C@@H](Cc1ccc(O)cc1)C(N)=O)[C@@H](C)O` [AcFEWTPGYYQJY--NH2] (Ac-FEWTPGYYQ[Aze]Y-NH2) were, in that order, at most 500 nM and 500 nM.
The like results for `CC(C)C[C@H](NC(=O)[C@@H]1CCCN1C(=O)[C@H](CC(C)C)NC(=O)[C@H](C)NC(=O)[C@H](Cc1ccc(O)cc1)NC(=O)[C@@H]1CCN1C(=O)[C@H](CCC(N)=O)NC(=O)[C@H](Cc1ccc(O)cc1)NC(=O)[C@H](Cc1ccc(O)cc1)NC(=O)CNC(=O)[C@@H]1CCCN1C(=O)[C@@H](NC(=O)[C@H](Cc1c[nH]c2ccccc12)NC(=O)[C@H](CCC(=O)O)NC(=O)[C@@H](N)Cc1ccccc1)[C@@H](C)O)C(=O)O` [FEWTPGYYQJYALPL] (H-FEWTPGYYQ[Aze]YALPL-OH) were, in that order, at most 500 nM and at most 500 nM.
With `CC(=O)N[C@@H](Cc1ccccc1)C(=O)N[C@@H](CCC(=O)O)C(=O)N[C@@H](Cc1c[nH]c2ccccc12)C(=O)N[C@H](C(=O)N1CCC[C@H]1C(=O)N[C@H](C)C(=O)N[C@@H](Cc1ccc(O)cc1)C(=O)N[C@@H](Cc1ccc(O)cc1)C(=O)N[C@@H](CCC(N)=O)C(=O)N1CC[C@H]1C(=O)N[C@@H](Cc1ccc(O)cc1)C(N)=O)[C@@H](C)O` [AcFEWTPaYYQJY--NH2] (Ac-FEWTP[dA]YYQ[Aze]Y-NH2), the IC50 in test [1] is at most 500 nM; in test [2], at most 100000 nM.
